Key:
His-AKT (Full Length) = His-AKT (Full Length) (Homo sapiens (Human), UniProt P31749); experiment: AKT enzyme assay; type: biochemical; details: read-out: IC50 AKT
P70S6K (T412E mutant) = P70S6K (T412E mutant) (Homo sapiens (Human), UniProt P23443, T412E); experiment: P70S6K enzyme assay; type: biochemical; details: read-out: IC50 p70S6K
In short: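 Read-out is the substrate/phosphopeptide ratio from mobility-shift electrophoresis on a LabChip 3000.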

P70S6K (T412E mutant), sequence (P23443 whole entry T412E): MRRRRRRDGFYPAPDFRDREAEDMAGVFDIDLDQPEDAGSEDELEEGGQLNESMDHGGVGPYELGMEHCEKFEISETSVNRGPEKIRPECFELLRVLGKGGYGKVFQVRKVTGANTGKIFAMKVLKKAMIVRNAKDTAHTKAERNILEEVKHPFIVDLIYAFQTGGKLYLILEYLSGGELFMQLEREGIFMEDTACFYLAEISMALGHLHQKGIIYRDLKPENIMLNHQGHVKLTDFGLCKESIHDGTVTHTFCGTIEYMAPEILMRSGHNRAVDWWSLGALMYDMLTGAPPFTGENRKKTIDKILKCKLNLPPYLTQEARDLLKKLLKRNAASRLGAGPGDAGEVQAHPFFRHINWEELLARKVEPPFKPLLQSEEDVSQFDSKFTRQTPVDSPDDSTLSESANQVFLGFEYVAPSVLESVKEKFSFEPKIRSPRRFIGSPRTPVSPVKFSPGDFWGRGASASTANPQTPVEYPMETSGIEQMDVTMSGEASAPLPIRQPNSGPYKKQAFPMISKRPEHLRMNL
His-AKT (Full Length), sequence (P31749 whole entry): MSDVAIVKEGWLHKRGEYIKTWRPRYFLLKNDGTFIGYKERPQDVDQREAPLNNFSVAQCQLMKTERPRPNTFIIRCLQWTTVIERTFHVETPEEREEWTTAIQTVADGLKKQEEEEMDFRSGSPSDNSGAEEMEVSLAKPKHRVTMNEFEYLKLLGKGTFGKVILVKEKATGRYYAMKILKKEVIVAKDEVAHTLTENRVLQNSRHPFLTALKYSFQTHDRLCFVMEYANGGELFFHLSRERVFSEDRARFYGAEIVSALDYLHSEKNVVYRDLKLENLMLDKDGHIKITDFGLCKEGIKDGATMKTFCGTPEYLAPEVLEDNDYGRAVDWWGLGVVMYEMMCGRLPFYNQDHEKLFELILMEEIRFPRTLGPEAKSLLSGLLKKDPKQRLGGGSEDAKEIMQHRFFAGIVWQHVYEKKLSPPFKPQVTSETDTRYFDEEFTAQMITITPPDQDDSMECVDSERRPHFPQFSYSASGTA

Compound	IC50 (His-AKT (Full Length))	IC50 (P70S6K (T412E mutant))
CC(C)(C)NCCn1cc(-c2ccc(F)c(C(F)(F)F)c2)nc1C1CCN(c2ncnc(N)c2C#N)CC1 [Compound 375, 4-Amino-6-{4-[1-(2-tert-butylamino-ethyl)-4-(4-fluoro-3-trifluoromethyl-phenyl)-1H-imidazol-2-yl]-piperidin-1-yl}-pyrimidine-5-carbonitrile]	1.9 nM	1.3 nM
CCOc1c(N)ncnc1N1CCC(c2nc(-c3ccc(F)c(C(F)(F)F)c3)cn2CCN2CCC2)CC1 [Compound 102, 6-(4-(1-(2-(azetidin-1-yl)ethyl)-4-(4-fluoro-3-(trifluoromethyl)phenyl)-1H-imidazol-2-yl)piperidin-1-yl)-5-ethoxypyrimidin-4-amine]	4.1 nM	2.4 nM
CCOc1c(N)ncnc1N1CCC(c2nc(-c3ccc(F)c(C(F)(F)F)c3)cn2CCNC(C)C)CC1 [Compound 398, 5-Ethoxy-6-{4-[4-(4-fluoro-3-trifluoromethyl-phenyl)-1-(2-isopropylamino-ethyl)-1H-imidazol-2-yl]-piperidin-1-yl}-pyrimidin-4-ylamine]	1.5 nM	2.1 nM
Cc1cc(-c2cn(CCO)c(C3CCN(c4ncnc(N)c4C#N)CC3)n2)ccc1F [Compound 384, 4-Amino-6-{4-[4-(4-fluoro-3-methyl-phenyl)-1-(2-hydroxy-ethyl)-1H-imidazol-2-yl]-piperidin-1-yl}-pyrimidine-5-carbonitrile]	440 nM	1.8 nM
CS(=O)(=O)c1cccc(-c2cn(CCN3CCC3)c(C3CCN(c4ncnc(N)c4C(N)=O)CC3)n2)c1 [Compound 356, 4-Amino-6-{4-[1-(2-azetidin-1-yl-ethyl)-4-(3-methanesulfonyl-phenyl)-1H-imidazol-2-yl]-piperidin-1-yl}-pyrimidine-5-carboxylic acid amide]	560 nM	80 nM
CCc1c(N)ncnc1N1CCC(c2nc(-c3ccc(F)c(C(F)(F)F)c3)cn2CCN2CCCCC2)CC1 [Compound 276]	9.3 nM	2.8 nM
C=Cc1c(N)ncnc1N1CCC(c2nc(-c3cccc(F)c3)cn2CCN2CCCC2)CC1 [Compound 240]	21 nM	0.9 nM
NC(=O)c1c(N)ncnc1N1CCC(c2nc(-c3ccc(F)c(C(F)(F)F)c3)cn2C2CCNC2)CC1 (stereo not drawn) [Compound 138, 4-amino-6-(4-(4-(4-fluoro-3-(trifluoromethyl)phenyl)-1-(pyrrolidin-3-yl)-1H-imidazol-2-yl)piperidin-1-yl)pyrimidine-5-carboxamide]	100 nM	1.7 nM
Nc1ncnc(N2CCC(c3nc(-c4ccc(C(F)(F)F)c(F)c4)cn3CCN3CCCC3)CC2)c1C1CCC1 [Compound 258]	380 nM	36 nM
Cn1cc(-c2ccc(F)c(C(F)(F)F)c2)nc1C1CCN(c2ncnc(N)c2C=O)CC1 [Compound 6, 4-Amino-6-{4-[4-(4-fluoro-3-trifluoromethyl-phenyl)-1-methyl-1H-imidazol-2-yl]-piperidin-1-yl}-pyrimidine-5-carbaldehyde]	160 nM	0.6 nM
N#Cc1c(N)ncnc1N1CCC(c2nc(-c3ccnc(C4CC4)c3)cn2CCN2CCC2)CC1 [Compound 319]	23 nM	1.7 nM
CCOc1c(N)ncnc1N1CCC(c2nc(-c3ccc(F)c(C)c3)cn2CC2CNC2)CC1 [Compound 185, 6-(4-(1-(azetidin-3-ylmethyl)-4-(4-fluoro-3-methylphenyl)-1H-imidazol-2-yl)piperidin-1-yl)-5-ethoxypyrimidin-4-amine]	6.6 nM	2.2 nM
N#Cc1c(N)ncnc1N1CCC(c2nc(-c3ccc(F)c(F)c3)cn2CCN2CCCC2)CC1 [Compound 306, 4-amino-6{4-(3,4-difluorophenyl-1-2-(pyrrolidin-1-yl-ethyl)-1H-imidazol-2-yl]-piperidin-1-yl}-pyrimidin-5-carbonitrile]	7.6 nM	2 nM
N#Cc1c(N)ncnc1N1CCC(c2nc(-c3ccc(F)c(C(F)(F)F)c3)cn2CCN2CCC2)CC1 [Compound 74, 4-Amino-6-{4-[1-(2-azetidin-1-yl-ethyl)-4-(4-fluoro-3-trifluoromethyl-phenyl)-1H-imidazol-2-yl]-piperidin-1-yl}-pyrimidine-5-carbonitrile]	2.6 nM	1.2 nM
CCc1c(N)ncnc1N1CCC(c2nc(-c3cncc(C)c3)cn2CCN2CCC2)CC1 [Compound 113, 6-(4-(1-(2-(azetidin-1-yl)ethyl)-4-(5-methylpyridin-3-yl)-1H-imidazol-2-yl)piperidin-1-yl)-5-ethylpyrimidin-4-amine]	465 nM	84 nM
Nc1ncnc(N2CCC(c3nc(-c4ccc(F)cc4)cn3CCN3CCCC3)CC2)c1Br [Compound 227]	2.9 nM	1.4 nM
CCc1c(N)ncnc1N1CCC(c2nc(-c3ccc(F)c(C(F)(F)F)c3)cn2CCN2CCCC2)CC1 [Compound 208]	7.6 nM	3.2 nM

Compound	IC50 (His-AKT (Full Length))	IC50 (P70S6K (T412E mutant))
CNCCn1cc(-c2ccnc(C(F)(F)F)c2)nc1C1CCN(c2cc(N)ncn2)CC1 [Compound 167, 6-(4-(1-(2-(methylamino)ethyl)-4-(2-(trifluoromethyl)pyridin-4-yl)-1H-imidazol-2-yl)piperidin-1-yl)pyrimidin-4-amine]	> 1000 nM	130 nM
CN1CC(Cn2cc(-c3ccc(F)c(C(F)(F)F)c3)nc2C2CCN(c3ncnc(N)c3C(N)=O)CC2)C1 [Compound 156, 4-amino-6-(4-(4-(4-fluoro-3-(trifluoromethyl)phenyl)-1-((1-methylazetidin-3-yl)methyl)-1H-imidazol-2-yl)piperidin-1-yl)pyrimidine-5-carboxamide]	81 nM	4.9 nM
Cc1cc(-c2cn(CCN(C)C(C)C)c(C3CCN(c4ncnc(N)c4C(N)=O)CC3)n2)ccc1F [Compound 385, 4-Amino-6-(4-{4-(4-fluoro-3-methyl-phenyl)-1-[2-(isopropyl-methyl-amino)-ethyl]-1H-imidazol-2-yl}-piperidin-1-yl)-pyrimidine-5-carboxylic acid amide]	42 nM	6.2 nM
CN(C)CCn1cc(-c2ccc(F)c(C(F)(F)F)c2)nc1C1CCN(c2ncnc(N)c2-c2ccc(C(C)(C)O)cc2)CC1 [Compound 87, 2-(4-(4-Amino-6-(4-(1-(2-(dimethylamino)ethyl)-4-(4-fluoro-3-(trifluoromethyl)phenyl)-1H-imidazol-2-yl)piperidin-1-yl)pyrimidin-5-yl)phenyl)propan-2-ol]	190 nM	9.3 nM
COC(=O)c1ccc(-c2c(N)ncnc2N2CCC(c3nc(-c4ccc(F)c(C(F)(F)F)c4)cn3CCN(C)C)CC2)cc1 [Compound 88, Methyl 4-(4-amino-6-(4-(1-(2-(dimethylamino)ethyl)-4-(4-fluoro-3-(trifluoromethyl)phenyl)-1H-imidazol-2-yl)piperidin-1-yl)pyrimidin-5-yl)benzoate]	95 nM	8.1 nM
CNCCn1cc(-c2ccc(F)c(C)c2)nc1C1CCN(c2ncnc(N)c2-c2cn[nH]c2)CC1 [Compound 162, 6-(4-(4-(4-fluoro-3-methylphenyl)-1-(2-(methylamino)ethyl)-1H-imidazol-2-yl)piperidin-1-yl)-5-(1H-pyrazol-4-yl)pyrimidin-4-amine]	21 nM	5.9 nM
CCc1c(N)ncnc1N1CCC(c2nc(-c3ccc(F)c(C(F)(F)F)c3)cn2CCN(C)C)CC1 [Compound 82, 6-(4-(1-(2-(Dimethylamino)ethyl)-4-(4-fluoro-3-(trifluoromethyl)phenyl)-1H-imidazol-2-yl)piperidin-1-yl)-5-ethylpyrimidin-4-amine]	12 nM	3.7 nM
N#Cc1c(N)ncnc1N1CCC(c2nc(-c3ccc(F)c(F)c3)cn2CCN2CCC2)CC1 [Compound 313]	9.3 nM	1.6 nM
CCc1c(N)ncnc1N1CCC(c2nc(-c3ccc(Cl)cc3)cn2CCN2CCCC2)CC1 [Compound 273]	190 nM	7.4 nM
Cc1cc(-c2cn(CCNC3CCCC3)c(C3CCN(c4ncnc(N)c4C#N)CC3)n2)ccc1F [Compound 389, 4-Amino-6-{4-[1-(2-cyclopentylamino-ethyl)-4-(4-fluoro-3-methyl-phenyl)-1H-imidazol-2-yl]-piperidin-1-yl}-pyrimidine-5-carbonitrile]	0.7 nM	0.9 nM
CNCCn1cc(-c2ccc(F)c(C(F)(F)F)c2)nc1C1CCN(c2ncnc(N)c2C#N)CC1 [Compound 374, 4-Amino-6-{4-[4-(4-fluoro-3-trifluoromethyl-phenyl)-1-(2-methylamino-ethyl)-1H-imidazol-2-yl]-piperidin-1-yl}-pyrimidine-5-carbonitrile]	1.5 nM	0.4 nM
CCc1c(N)ncnc1N1CCC(c2nc(-c3cncc(C(F)(F)F)c3)cn2CCN2CCC2)CC1 [Compound 99, 6-(4-(1-(2-(azetidin-1-yl)ethyl)-4-(5-(trifluoromethyl)pyridin-3-yl)-1H-imidazol-2-yl)piperidin-1-yl)-5-ethylpyrimidin-4-amine]	18 nM	4.5 nM
Cn1cc(-c2ccc(F)c(C(F)(F)F)c2)nc1C1CCN(c2ncnc(N)c2-c2ccc(N)nc2)CC1 [Compound 40, 5-(6-Amino-pyridin-3-yl)-6-{4-[4-(4-fluoro-3-trifluoromethyl-phenyl)-1-methyl-1H-imidazol-2-yl]-piperidin-1-yl}-pyrimidin-4-ylamine]	2700 nM	2.3 nM
COCC(C)NCCn1cc(-c2ccc(F)c(C(F)(F)F)c2)nc1C1CCN(c2ncnc(N)c2C(N)=O)CC1 (stereo not drawn) [Compound 371, 4-Amino-6-(4-{4-(4-fluoro-3-trifluoromethyl-phenyl)-1-[2-(2-methoxy-1-methyl-ethylamino)-ethyl]-1H-imidazol-2-yl}-piperidin-1-yl)-pyrimidine-5-carboxylic acid amide]	85 nM	18 nM
Nc1ncnc(N2CCC(c3nc(-c4ccc(C(F)(F)F)c(F)c4)cn3CCN3CCCC3)CC2)c1C1CCC1 [Compound 254]	9.1 nM	8.1 nM
Nc1ncnc(N2CCC(c3nc(-c4ccc(F)c(C(F)(F)F)c4)cn3CCN3CCCCC3)CC2)c1-c1ccccc1F [Compound 63]	130 nM	5.1 nM

— US9145392B2, “Imidazole amines as modulators of kinase activity” (Merck Patent GmbH, priority 2011, dated 2015)
